The values below come from ChEMBL document CHEMBL1133817, “Discovery of novel, orally active dual NK1/NK2 antagonists” (Bioorg Med Chem Lett, 2001).

Structures are written as SMILES.

The target of series [1] is T1, Substance-P receptor (Homo sapiens, UniProt P25103). Briefly: Binding affinity against human cloned Tachykinin receptor 1 expressed in MEL cells. In kind it is cell-based.
Series [2] is described as follows: Half life period at a dose of 10 uM/kg in rat was determined. In kind it is ADME, organism-based. Particulars: in vivo.
Series [3] in a line: Volume distribution at a dose of 1 uM/kg in dog was determined. The note with it: in vivo, read-out: Vdss. In kind it is ADME, organism-based, Canis lupus familiaris.
A short description of series [4]: Tmax by oral administration at a dose of 100 uM/kg in rat was determined. The note with it: in vivo. In kind it is ADME, organism-based.
For series [5], the system named is Rattus norvegicus. Briefly: Area under curve by intravenous administration at a dose of 10 uM/kg in rat was determined. In kind it is ADME, organism-based. Particulars: in vivo.
Series [6] is described as follows: Maximum concentration by oral administration at a dose of 10 umol/kg in dog was determined. In kind it is ADME, organism-based, Canis lupus familiaris. Also on record: dose 10 umol/kg, route oral. Particulars: in vivo.
Series [7] deals with Canis familiaris. As to the kind of experiment: Area under curve by oral administration at a dose of 10 uM/kg in dog was determined. Particulars: in vivo. In kind it is ADME, organism-based, Canis lupus familiaris.
A short description of series [8]: Maximum concentration by oral administration at a dose of 100 umol/kg in rat was determined. Particulars: in vivo. Also on record: dose 100 umol/kg, route oral. In kind it is ADME, organism-based.
The nature of series [9]: Bioavailability by oral administration at a dose of 10 uM/kg in dog was determined. In kind it is ADME, organism-based, Canis lupus familiaris. The note with it: in vivo, read-out: Bioavailabiility.
Series [10] in a line: Volume distribution at a dose of 10 uM/kg in rat was determined. In kind it is ADME, organism-based. Particulars: in vivo, read-out: Vdss.
Series [11] is described as follows: Half life period at a dose of 1 uM/kg in dog was determined. In kind it is ADME, organism-based, Canis lupus familiaris. Particulars: in vivo.
A short description of series [12]: Plasma clearance in rat at a dose of 10 uM/kg in rat was determined. In kind it is ADME, organism-based. The note with it: read-out: Clp.
The nature of series [13]: Tmax by oral administration at a dose of 10 uM/kg in dog was determined. In kind it is ADME, organism-based, Canis lupus familiaris. The note with it: in vivo.
The nature of series [14]: Bioavailability by oral administration at a dose of 100 uM/kg in rat was determined. In kind it is ADME, organism-based. The note with it: in vivo, read-out: Bioavailabiility.
The test system of series [15] is Rattus norvegicus. As to the kind of experiment: Area under curve by oral administration at a dose of 100 uM/kg in rat was determined. In kind it is ADME, organism-based. Particulars: in vivo.
Series [16] can be described thus: Half-life period by oral administration at a dose of 10 uM/kg in dog was determined. In kind it is ADME, organism-based, Canis lupus familiaris. The note with it: in vivo.
In series [17] the test system is Canis familiaris. As to the kind of experiment: Area under curve by intravenous administration at a dose of 1 uM/kg in dog was determined. In kind it is ADME, organism-based, Canis lupus familiaris. The note with it: in vivo.
For the next series, the target named is T2, Substance-K receptor (Homo sapiens, UniProt P21452).
T2 sequence (P21452 whole entry): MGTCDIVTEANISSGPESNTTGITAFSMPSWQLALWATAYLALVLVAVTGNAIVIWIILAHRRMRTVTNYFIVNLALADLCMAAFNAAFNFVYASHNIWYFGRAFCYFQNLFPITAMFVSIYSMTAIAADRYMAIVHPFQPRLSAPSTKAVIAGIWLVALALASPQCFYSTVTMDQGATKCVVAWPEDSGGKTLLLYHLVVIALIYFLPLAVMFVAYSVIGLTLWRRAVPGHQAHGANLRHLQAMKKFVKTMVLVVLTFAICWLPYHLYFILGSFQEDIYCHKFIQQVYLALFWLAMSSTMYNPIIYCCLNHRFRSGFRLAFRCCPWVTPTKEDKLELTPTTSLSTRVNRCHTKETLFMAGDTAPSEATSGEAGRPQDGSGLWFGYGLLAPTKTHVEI
As to the kind of experiment: Binding affinity against human cloned Tachykinin receptor 2 expressed in MEL cells. In kind it is cell-based.

Another series concerns the target T3, Neuromedin-K receptor (Homo sapiens, UniProt P29371).
T3 sequence (P29371 whole entry): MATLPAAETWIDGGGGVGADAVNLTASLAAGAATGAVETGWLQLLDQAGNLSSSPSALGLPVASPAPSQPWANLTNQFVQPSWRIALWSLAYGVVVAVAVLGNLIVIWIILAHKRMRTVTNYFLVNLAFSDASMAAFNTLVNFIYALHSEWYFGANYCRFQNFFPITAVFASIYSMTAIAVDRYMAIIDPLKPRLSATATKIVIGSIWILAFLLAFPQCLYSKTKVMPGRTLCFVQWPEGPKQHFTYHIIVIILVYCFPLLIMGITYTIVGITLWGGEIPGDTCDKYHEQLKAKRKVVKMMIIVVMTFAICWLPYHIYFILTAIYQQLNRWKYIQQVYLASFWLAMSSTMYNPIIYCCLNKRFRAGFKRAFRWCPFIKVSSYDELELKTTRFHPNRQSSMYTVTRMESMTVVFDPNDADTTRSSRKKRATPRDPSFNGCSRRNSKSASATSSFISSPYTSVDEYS
As to the kind of experiment: Binding affinity against human cloned Tachykinin receptor 3 expressed in MEL cells. In kind it is cell-based.

In series [18] the target is T4, Substance-K receptor (Homo sapiens) (UniProt P21452).
T4 sequence (whole entry): T2 sequence (P21452 whole entry)
Particulars: Bronchus.
Description: Binding constant towards Tachykinin receptor 2 using NKA as agonist on human bronchus

The target of series [19] is T5, Substance-K receptor (Oryctolagus cuniculus) (UniProt P79218).
T5 sequence (whole entry): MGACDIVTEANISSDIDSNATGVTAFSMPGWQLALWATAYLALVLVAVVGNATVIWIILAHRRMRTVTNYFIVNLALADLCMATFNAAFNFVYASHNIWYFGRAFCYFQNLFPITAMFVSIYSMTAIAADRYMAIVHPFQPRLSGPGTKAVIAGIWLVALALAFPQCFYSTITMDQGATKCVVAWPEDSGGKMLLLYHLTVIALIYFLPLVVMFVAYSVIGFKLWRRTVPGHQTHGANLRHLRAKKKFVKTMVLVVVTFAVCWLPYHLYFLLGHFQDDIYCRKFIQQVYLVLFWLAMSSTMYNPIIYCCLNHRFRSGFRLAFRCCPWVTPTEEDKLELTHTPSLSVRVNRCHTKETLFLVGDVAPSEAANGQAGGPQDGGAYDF
Briefly: Binding constant towards Tachykinin receptor 2 using BANK as agonist on rabbit pulmonary artery tissues.

The target of series [20] is T1, Substance-P receptor. Particulars: Artery.
Description: (§1) Binding constant towards Tachykinin receptor 1 using ASMSP as agonist on human pulmonary artery tissues
In series [21] the target is T1, Substance-P receptor. The note with it: Artery. The source holds these as a separate data set.
Description: as §1

T1 sequence (P25103 whole entry): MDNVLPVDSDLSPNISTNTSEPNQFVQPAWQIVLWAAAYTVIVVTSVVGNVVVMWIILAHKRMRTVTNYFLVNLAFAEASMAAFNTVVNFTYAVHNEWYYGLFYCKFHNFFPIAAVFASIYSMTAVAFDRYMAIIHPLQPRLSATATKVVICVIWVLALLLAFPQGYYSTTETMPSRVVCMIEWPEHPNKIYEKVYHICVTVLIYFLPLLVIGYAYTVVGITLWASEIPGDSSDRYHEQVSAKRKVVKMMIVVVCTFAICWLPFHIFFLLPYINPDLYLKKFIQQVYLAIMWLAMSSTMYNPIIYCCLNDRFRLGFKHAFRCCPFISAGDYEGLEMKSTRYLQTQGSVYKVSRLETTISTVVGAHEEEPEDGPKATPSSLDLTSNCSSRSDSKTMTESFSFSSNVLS

The term Ki denotes a dissociation constant, usually derived from enzyme kinetics or from competition with a known ligand. Read a low Ki as higher affinity. As a reminder, the half-life is how long it takes for the measured level to halve. High values mean slow decline, low ones rapid decline. What is called Tmax is the time at which the peak concentration occurs. As usually defined, the AUC is concentration integrated over time. A high value points to more exposure. By Cmax is commonly meant the highest concentration seen after dosing. Regarding `CN(C[C@@H](CCN1CCC(c2ccccc2[S@+](C)[O-])CC1)c1ccc(Cl)c(Cl)c1)C(=O)c1cc(C#N)cc2ccccc12` (stereo in doubt) [listing 1 of 2 here], the values for the inhibition constant (Ki) at Substance-P receptor [1], at Substance-K receptor and at Neuromedin-K receptor were 100 pM, 600 pM and 74000 pM, respectively. In addition, the half-life in series [2] is 1.8 h; in series [11] it was 3.8 h; in [16], 2.3 h. Besides, the Vd came to 2 L/kg in series [3] and 3.7 L/kg in series [10]. For the same molecule, the Tmax in series [4] and in series [13] was 2 h each time. The AUC in the series with Rattus norvegicus [5] was found to be 3200 ng·h/mL; with Canis familiaris [7], 2000 ng·h/mL; in the series on Rattus norvegicus [15], 3010 ng·h/mL; in the series on Canis familiaris [17], 1100 ng·h/mL. Moreover, the Cmax in series [6] stood at 364 ng/mL; in series [8] it was 421 ng/mL. Besides, the results for the bioavailability in series [9] and in series [14] were 18% and 9%, respectively. The clearance in [12] worked out at 32.6 mL/min/kg.

What is called pKB is the KB on a negative log10 scale, so that one unit is a factor of ten. Low readings indicate a high KB, high ones a low KB. With `CN(C[C@@H](CCN1CCC(c2ccccc2[S@+](C)[O-])CC1)c1ccc(Cl)c(Cl)c1)C(=O)c1cc(C#N)cc2ccccc12` (stereo in doubt) [listing 2 of 2 here], the pKB was determined as 7.5 in [18], 8.26 in series [19] and 8.9 at Substance-P receptor [20].

Turning to `COc1cc(C(=O)N2CC[C@](CCN3CCC(C(N)=O)(c4ccccc4)CC3)(c3ccc(Cl)c(Cl)c3)C2)cc(OC)c1OC`, the Ki was 300 pM on Substance-P receptor [1], 1000 pM on Substance-K receptor and 200000 pM on Neuromedin-K receptor. Further, the values for the negative logarithm of the KB (pKB) (at Substance-P receptor [21]; in series [18]; in series [19]) were 6.9, 6.4 and 6.7, respectively.
